Tested on: Diamondback moth (Plutella xylostella)
Assay: Test Example 1: Japanese radish seed treatment, mortality of Diamondback moth larvae
Format: in vivo
Settings: 48 h, Diamondback moth third instar larvae released 4 days after seeding, observed 2 days after release, average of two replications; for mortality at 0.01 mg: dose 0.01 mg/1 grain of seed; for mortality at 0.2 mg: dose 0.2 mg/1 grain of seed
Description: Each of the present fused heterocyclic compounds 3, 4, 5, 9, 15, 16, 17, 18, 19, 20, 22, 25, 72, 74, 85, 130, 399, 409, 414, 419, 443, 444, 445, 464 and 467 was dissolved in acetone (available from Wako Pure Chemical Industries, Ltd.) containing 5% (W/V) SOLGEN TW-20 (available from Daiichi-Kogyo Seiyaku Co. Ltd.) so as to give a prescribed concentration, and to prepare the testing solution.
Nine (9) grains of the Japanese raddish (Raphanus sativas var. longipinnatus) were placed in a 2 ml volume polypropylene microtube (manufactured by As One Co.) and thereto was added 18 μl of the above testing solution and the seeds in the microtube were shaken and stirred on Stirrer (Trade name: VORTEX-GENIE2, manufactured by Scientific Industries, Inc.). After the testing solution was spread uniformly to the whole seed, the seeds were allowed to air dry.
To a 90 ml volume of plastic cup filled with ten (10) g of culture soil (Trade name: Aisai No. 1; available from Katakura Chikkarin Co., Ltd.) was added water (5 ml) and thereto was seeded three (3) grains of the above seeds.
At four days after the seeding, Diamondback moth (Plutella xylostella) at the third instar larval stages were released in a ratio of 10 (ten) heads of insects per the cup, and then the cups were covered with nylon gauze and covered with a lid (hereinafter, referred to as “treated group”).
On the other hand, Japanese raddish was seeded by the similar procedures to the treated group except that the present fused heterocyclic compound was not dissolved in acetone (available from Wako Pure Chemical Industries, Ltd.) containing 5% (W/V) SOLGEN TW-20 (available from Daiichi-Kogyo Seiyaku Co. Ltd.), and the larvae were released, and the cups were covered with a lid (hereinafter, referred to as “Untreated group”).
At two days after the release, the surviving and death of the larvae were observed and on basis of the results of the observation, the mortalities of both groups were calculated by the following equation 1), respectively. Two replication tests were performed on each group. The average value is shown below. Mortality (%)=(Total number of […])/Total number of Tested insects×100 Equation 1)

## CCS(=O)(=O)c1cccnc1-c1nc2cc(C(F)(F)F)ccc2o1 [Present fused heterocyclic compound 85, 2-(3-Ethylsulfonylpyridin-2-yl)-5-trifluoromethyl-benzoxazole]
  mortality at 0.01 mg: 90%
  mortality at 0.2 mg: 95%

## CC[S+]([O-])c1cc(C(F)(F)F)cnc1-c1nc2cc(C(F)(F)C(F)(F)F)cnc2n1C (centres unmarked) [Present fused heterocyclic compound 18, 2-(3-Ethylsulfinyl-5-trifluoromethyl-pyridin-2-yl)-3-methyl-6-pentafluoroethyl-3H-imidazo[4,5-b]pyridine]
  mortality at 0.01 mg: 100%
  mortality at 0.2 mg: 100%

## CCS(=O)(=O)c1cc(C(F)(F)F)cnc1-c1nc2cc(C(F)(F)F)c(C#N)nc2n1C [Present fused heterocyclic compound 399, 5-cyano-2-(3-ethylsulfonyl-5-trifluoromethylpyridin-2-yl)-3-methyl-6-trifluoromethyl-3H-imidazo[4,5-b]pyridine]
  mortality at 0.01 mg: 90%
  mortality at 0.2 mg: 95%

## CCS(=O)(=O)c1cccnc1-c1nc2cc(SC(F)(F)F)cnc2n1C [Present fused heterocyclic compound 15, 2-(3-ethylsulfonyl-pyridin-2-yl)-3-methyl-6-trifluoromethylsulfanyl-3H-imidazo[4,5-b]pyridine]
  mortality at 0.01 mg: 100%
  mortality at 0.2 mg: 100%
